Experimental data: patent publication US12129221B2, “Difluoro phenyl amide RIP1 inhibitor” (SIRONAX LTD, priority 2018, dated 2024)

Legend:
[1] = Liver microsome stability, mouse; type: in vitro ADME; conditions: liver microsomes
Source text: (§1) Representative Metabolic Stability Data I; +, Extrapolated.

[2] = Hepatocyte stability, rat; type: in vitro ADME; set-up: key to Rat T1/2 (min): +, Extrapolated; conditions: for Rat T1/2 (min): extrapolated; for half-life: rat, hepatocytes, read-out: Rat T1/2
Source text: (§2) Representative Metabolic Stability Data II, +, Extrapolated.

[3] = test system: necrosis; assay: Necrosis inhibitory activity (cell necrosis / cell viability assay); type: cell-based; conditions: Necrosis Inhibitory Activity, given as range; read-out: EC50
Source text: Necrosis Inhibitory Activity
Representative IC50 of hRIP1 Kinase Assay Correlated with Our IC50 of Cell Necrosis Assay: […]

[4] = Hepatocyte stability, human; type: in vitro ADME; set-up: key to Human T1/2 (min): +, Extrapolated; conditions: for Human T1/2 (min): extrapolated; for half-life: human, hepatocytes, read-out: Human T1/2
Source text: as §2

[5] = Hepatocyte stability, monkey; type: in vitro ADME; set-up: key to Monkey T1/2 (min): +, Extrapolated; conditions: for Monkey T1/2 (min): extrapolated; for half-life: monkey, hepatocytes, read-out: Monkey T1/2
Source text: as §2

[6] = test system: ferroptosis; assay: Ferroptosis inhibitor activity; type: cell-based; conditions: 1 uM threshold activity extrapolated
Source text: Ferroptosis Inhibitor Activity 1 Um Threshold Activity Extrapolated

[7] = Hepatocyte stability, dog; type: in vitro ADME; set-up: key to Dog T1/2 (min): +, Extrapolated; conditions: for Dog T1/2 (min): extrapolated; for half-life: dog, hepatocytes, read-out: Dog T1/2
Source text: as §2

[8] = Hepatocyte stability, mini-pig; type: in vitro ADME; set-up: key to mini-pig T1/2 (min): +, Extrapolated; conditions: for mini-pig T1/2 (min): extrapolated
Source text: as §2

[9] = PK in rat; set-up: species or system SD rat; conditions: Sprague-Dawley, in vivo; for bioavailability / half-life: rat
Source text: Representative PK Date of Pro-Drug Compounds

[10] = Hepatocyte stability, mouse; type: in vitro ADME; set-up: key to Mouse T1/2 (min): +, Extrapolated; conditions: for Mouse T1/2 (min): extrapolated; for half-life: mouse, hepatocytes, read-out: Mouse T1/2
Source text: as §2

[11] = Liver microsome stability, monkey; type: in vitro ADME; set-up: key to Monkey T1/2 (min): +, Extrapolated; conditions: for half-life: monkey, liver microsomes
Source text: as §1

[12] = Liver microsome stability, human; type: in vitro ADME; conditions: liver microsomes, liver microsome stability, read-out: Human T1/2
Source text: as §1

[13] = Liver microsome stability, rat; type: in vitro ADME; conditions: liver microsomes
Source text: as §1

[14] = Liver microsome stability, mini-pig; type: in vitro ADME; set-up: key to mini-pig T1/2 (min): +, Extrapolated; conditions: for mini-pig T1/2 (min): extrapolated
Source text: as §1

[15] = Liver microsome stability, dog; type: in vitro ADME; set-up: key to Dog T1/2 (min): +, Extrapolated; conditions: for half-life: dog, liver microsomes
Source text: as §1

[16] = PK in mouse; conditions: in vivo
[17] = PK in monkey; conditions: in vivo
[18] = test system: HT-29; assay: EC50 in HT-29; type: cell-based; conditions: Homo sapiens
[19] = PK in dog; conditions: in vivo
[20] = liver microsome stability, read-out: Mouse T1/2
[21] = po, 10 mg/kg, SD rat, PO 10 mg/kg
[22] = liver microsome stability, extrapolated
[23] = liver microsome stability, read-out: Rat T1/2
[24] = po, 60 mg/kg, SD rat, dose 60 mg/Kg micropower
[25] = liver microsome stability, read-out: Monkey T1/2
[26] = liver microsome stability, read-out: Dog T1/2
[27] = Hepatocyte Stability, comparison table

Compound: CCC(C)(C)C(=O)N(O)Cc1ccc(Cl)cc1 [Compound 15, N-(4-chlorobenzyl)-N-hydroxy-2,2-dimethylbutanamide]
- half-life [1, 20]: 16.6 min
- Rat T1/2 (min) ([2]; Hepatocyte stability): +
- EC50 [3]: 1 to 1000 nM
- Human T1/2 (min) ([4]; Hepatocyte stability): +
- Monkey T1/2 (min) ([5]; Hepatocyte stability): +
- EC50 [6]: 1000 to 10000 nM
- Dog T1/2 (min) ([7]; Hepatocyte stability): +
- mini-pig T1/2 (min) [8]: +
- AUC ([9]; SD rat, PO 10 mg/kg): 923 ng·h/mL
- bioavailability [9, 21]: 20.3%
- half-life [9, 21]: 293 min
- Mouse T1/2 (min) ([10]; Hepatocyte stability): +
- Monkey T1/2 (min) [11, 22]: +
- half-life [12]: 96.8 min
- half-life [13, 23]: 41.1 min
- mini-pig T1/2 (min) [14]: +
- Dog T1/2 (min) [15, 22]: +

Compound: [2H]CC([2H])C(C)(C)C(=O)N(O)Cc1cc(F)cc(F)c1 (stereo not drawn) [Compound 26, N-(3,5-difluorobenzyl)-N-hydroxy-2,2-dimethylbutanamide-3,4-d2]
- half-life [1, 20]: 21.1 min
- half-life ([2]; Hepatocyte stability): 33.4 min
- EC50 [3]: 1 to 1000 nM
- half-life ([4]; Hepatocyte stability): 110 min
- half-life ([5]; Hepatocyte stability): 19.3 min
- EC50 [6]: 1000 to 10000 nM
- half-life ([7]; Hepatocyte stability): 8.43 min
- AUC ([9]; SD rat, PO, dose 60 mg/Kg micropower): 8340 ng·h/mL
- bioavailability [9, 24]: 74.1%
- half-life [9, 24]: 171 min
- half-life ([10]; Hepatocyte stability): 21 min
- half-life [11, 25]: 4.97 min
- half-life [12]: 136 min
- half-life [13, 23]: 23.3 min
- mini-pig T1/2 (min) [14]: +
- half-life [15, 26]: 2.31 min

Compound: CCC(C)(C)C(=O)N(O)Cc1ccccc1 [Compound 92, reference compound]
- AUC(0-inf) ([16]; IV 2 mg/kg): 323 ng·h/mL
- clearance ([16]; IV 2 mg/kg): 103 mL/min/kg
- half-life ([16]; IV 2 mg/kg): 186 min
- Vd ([16]; IV 2 mg/kg, read-out: Vdss): 3.08 L/kg
- AUC(0-inf) ([16]; PO 10 mg/kg): 349 ng·h/mL
- Cmax ([16]; PO 10 mg/kg): 249 ng/mL
- bioavailability ([16]; PO 10 mg/kg): 21.6%
- half-life ([16]; PO 10 mg/kg): 96 min
- half-life ([1]; comparison table with WO2016/101885 compounds, read-out: Mouse Liver Microsome T1/2): 32 min
- half-life [1, 20]: 32.5 min
- half-life [2, 27]: 14 min
- half-life ([2]; Hepatocyte stability): 14.2 min
- half-life [4, 27]: 73 min
- half-life ([4]; Hepatocyte stability): 73.1 min
- half-life [5, 27]: 19 min
- half-life ([5]; Hepatocyte stability): 18.9 min
- half-life [7, 27]: 14 min
- half-life ([7]; Hepatocyte stability): 13.9 min
- half-life ([8]; minipig, hepatocytes, read-out: mini-pig T1/2): 23.1 min
- AUC(0-inf) ([9]; Rat, IV 2 mg/kg): 520 ng·h/mL
- clearance ([9]; Rat, IV 2 mg/kg): 64 mL/min/kg
- Vd ([9]; Rat, IV 2 mg/kg, read-out: Vdss): 1.2 L/kg
- AUC(0-inf) ([9]; Rat, PO 10 mg/kg): 214 ng·h/mL
- Cmax ([9]; Rat, PO 10 mg/kg): 148 ng/mL
- AUC ([9]; SD rat, PO 10 mg/kg): 29.9 ng·h/mL
- half-life ([9]; iv, 2 mg/kg, IV 2 mg/kg): 18 min
- bioavailability ([9]; po, 10 mg/kg, PO 10 mg/kg): 1.2%
- half-life ([9]; po, 10 mg/kg, PO 10 mg/kg): 48 min
- bioavailability [9, 21]: 1.15%
- half-life [9, 21]: 38.4 min
- AUC(0-inf) ([17]; IV 2 mg/kg): 1940 ng·h/mL
- clearance ([17]; IV 2 mg/kg): 17.6 mL/min/kg
- half-life ([17]; IV 2 mg/kg): 46.2 min
- Vd ([17]; IV 2 mg/kg, read-out: Vdss): 0.86 L/kg
- AUC(0-inf) ([17]; PO 10 mg/kg): 374 ng·h/mL
- Cmax ([17]; PO 10 mg/kg): 185 ng/mL
- bioavailability ([17]; PO 10 mg/kg): 2.6%
- half-life ([17]; PO 10 mg/kg): 43.8 min
- half-life [10, 27]: 24 min
- half-life ([10]; Hepatocyte stability): 24.4 min
- half-life ([11]; comparison table with WO2016/101885 compounds, read-out: Monkey Liver Microsome T1/2): 3 min
- half-life [11, 25]: 2.95 min
- half-life [12]: 204 min
- EC50 [18]: 25 nM
- AUC(0-inf) ([19]; IV 3 mg/kg): 1960 ng·h/mL
- clearance ([19]; IV 3 mg/kg): 25.6 mL/min/kg
- half-life ([19]; IV 3 mg/kg): 72 min
- Vd ([19]; IV 3 mg/kg, read-out: Vdss): 1.24 L/kg
- AUC(0-inf) ([19]; PO 10 mg/kg): 136 ng·h/mL
- Cmax ([19]; PO 10 mg/kg): 171 ng/mL
- bioavailability ([19]; PO 10 mg/kg): 1.95%
- half-life ([19]; PO 10 mg/kg): 81 min
- half-life ([13]; comparison table with WO2016/101885 compounds, read-out: Rat Liver Microsome T1/2): 25 min
- half-life [13, 23]: 25.1 min
- half-life ([14]; minipig, liver microsomes, read-out: mini-pig T1/2): 53.5 min
- half-life ([15]; comparison table with WO2016/101885 compounds, read-out: Dog Liver Microsome T1/2): 7 min
- half-life [15, 26]: 7.1 min

Compound: [2H]C([2H])C([2H])([2H])C(C)(C)C(=O)N(O)Cc1ccccc1 [Compound 28, N-benzyl-N-hydroxy-2,2-dimethylbutanamide-3,3,4,4-d4]
- half-life [1, 20]: 33.6 min
- Rat T1/2 (min) ([2]; Hepatocyte stability): +
- EC50 [3]: 1 to 1000 nM
- Human T1/2 (min) ([4]; Hepatocyte stability): +
- Monkey T1/2 (min) ([5]; Hepatocyte stability): +
- EC50 [6]: 1000 to 10000 nM
- Dog T1/2 (min) ([7]; Hepatocyte stability): +
- mini-pig T1/2 (min) [8]: +
- AUC ([9]; SD rat, PO 10 mg/kg): 318 ng·h/mL
- bioavailability [9, 21]: 14.8%
- half-life [9, 21]: 37 min
- Mouse T1/2 (min) ([10]; Hepatocyte stability): +
- half-life [11, 25]: 3.3 min
- half-life [12]: 195 min
- half-life [13, 23]: 28.6 min
- mini-pig T1/2 (min) [14]: +
- half-life [15, 26]: 3.5 min

Compound: [2H]CC([2H])C(C)(C)C(=O)N(O)Cc1ccccc1 (stereo not drawn) [Compound 27, N-benzyl-N-hydroxy-2,2-dimethylbutanamide-3,4-d2]
- half-life [1, 20]: 26.5 min
- Rat T1/2 (min) ([2]; Hepatocyte stability): +
- EC50 [3]: 1 to 1000 nM
- Human T1/2 (min) ([4]; Hepatocyte stability): +
- Monkey T1/2 (min) ([5]; Hepatocyte stability): +
- EC50 [6]: 1000 to 10000 nM
- Dog T1/2 (min) ([7]; Hepatocyte stability): +
- mini-pig T1/2 (min) [8]: +
- AUC ([9]; SD rat, PO 10 mg/kg): 78.6 ng·h/mL
- bioavailability [9, 21]: 5.29%
- half-life [9, 21]: 55.2 min
- Mouse T1/2 (min) ([10]; Hepatocyte stability): +
- half-life [11, 25]: 0.6 min
- half-life [12]: 178 min
- half-life [13, 23]: 19.8 min
- mini-pig T1/2 (min) [14]: +
- half-life [15, 26]: 1.5 min

Compound: C=CC(C)(C)C(=O)N(O)Cc1ccccc1 [Compound 19, N-benzyl-N-hydroxy-2,2-dimethylbut-3-enamide]
- half-life [1, 20]: 25.4 min
- Rat T1/2 (min) ([2]; Hepatocyte stability): +
- EC50 [3]: 1 to 1000 nM
- Human T1/2 (min) ([4]; Hepatocyte stability): +
- Monkey T1/2 (min) ([5]; Hepatocyte stability): +
- EC50 [6]: 1000 to 10000 nM
- Dog T1/2 (min) ([7]; Hepatocyte stability): +
- mini-pig T1/2 (min) [8]: +
- Mouse T1/2 (min) ([10]; Hepatocyte stability): +
- half-life [11, 25]: 0.3 min
- half-life [12]: 154 min
- half-life [13, 23]: 28.9 min
- mini-pig T1/2 (min) [14]: +
- half-life [15, 26]: 6 min
